Measured values published in publication PMC7730452, “Citrullination-Resistant LL-37 Is a Potent Antimicrobial Agent in the Inflammatory Environment High in Arginine Deiminase Activity” (International Journal of Molecular Sciences, 2020).
Values after ≈ are worked out from the molar mass of the structure shown. Read-outs that look alike come from different tables or passages of the source.

Tests used:
[1] = molecular target: cathepsin G (Homo sapiens, UniProt P08311)
Procedure: (§1) After incubation samples were immediately frozen at −80 °C. Samples were separated on SDS-PAGE under denaturing condition in 4–16% gels. After separation, the gels underwent colloid Coomassie staining.

[2] = molecular target: aureolysin (Staphylococcus aureus, UniProt P81177); test: Degradation by protease, SDS-PAGE; details: 5 μg peptide, 0.05 μg protease, PBS, 25 μL, 37 °C, 1 h and 18 h, Coomassie
Procedure: as §1

[3] = molecular target: V8 protease (Staphylococcus aureus, UniProt P0C1U8); test: Degradation by protease, SDS-PAGE; details: 5 μg peptide, 0.05 μg protease, PBS, 25 μL, 37 °C, 1 h and 18 h, Coomassie
Procedure: as §1

[4] = cited from earlier work
From the text: The slower hydrolysis rate of homoarginine-containing peptides compared with their arginine-containing counterparts depend ...

[5] = system: HaCaT cells; test: LDH release cytotoxicity assay; format: cell-based, human; details: 24 h, n = 2
Procedure: The cell line of human immortalized keratinocytes (HaCaT) was obtained from American Type Culture Collection (ATCC, Manassas, VA, USA) and cultured in DMEM (Gibco, Life Technologies, Paisley, UK) supplemented with 10% heat-inactivated fetal bovine serum (FBS) and PEST (100 U/mL penicillin and 100 U/mL streptomycin) at 37 °C in humidified 5% CO2 atmosphere. Cells were passaged every 4–5 days. To assess the effect of peptides on the integrity of the plasma membrane, the LDH release assay was performed using the CytoTox96 nonradioactive cytotoxicity assay kit (Promega, Madison, WI, USA) according to the manufacturer’s instructions. Cytotoxicity was calculated with the formula: % cytotoxicity = 100 × (experimental LDH release/maximum LDH release), where maximum LDH release occurs after the addition of lysis solution (Triton X-100). Relative amounts of LDH release were measured (absorbance at 490 nm) using FlexStation 3 Multimode Microplate Reader (Molecular Device, Wokingham, UK). All assays were performed in duplicate.

[6] = system: venous leg ulcers; details: patients with venous leg ulcers; cited from earlier work
From the text: Current research is partly focused on peptide-based compounds.

[7] = molecular target: recombinant human PAD4 (Homo sapiens, UniProt Q9UM07)
Procedure: PAD4 activity was determined on N-α-benzoyl-L-arginine ethyl ester hydrochloride (BAEE) substrate with colorimetric assay [33].
Citrullination was terminated by snap-freezing the samples.
Reaction was terminated by addition of TFA (final concentration 0.1%) (Sigma) and samples were analyzed via HPLC. Separation was achieved on a reverse-phase column Aeris XB-C18, 3.6 μm, 4.6/150 (Phenomenex) connected to ÄKTAmicro (GE Healthcare). Peptides were eluted in the gradient of Phase A (0.1% TFA in water) and Phase B (80% acetonitrile, 0.08% TFA in water) and monitored at 215 nm.

[8] = molecular target: neutrophil elastase (Homo sapiens, UniProt P08246); details: 5 μg peptide, 0.05 μg protease, PBS, 25 μL, 37 °C, 1 h and 18 h; SDS-PAGE, Coomassie
Procedure: as §1

[9] = system: P. aeruginosa; format: cell-based, Pseudomonas aeruginosa (clinical isolate)
Procedure: (§2) Escherichia coli ATCC 25922 and Pseudomonas aeruginosa (clinical isolate) were inoculated from stocks into 20 mL LB Broth Lennox, while Staphylococcus aureus Δaur (8325-4 Δaur) into 20 mL TSB and grown overnight at 37 °C under constant rotation (180 rpm) to a mid-logarithmic growth phase. Then they were centrifuged at 5000× g for 5 min, washed in PBS, and resuspended in PBS to the desired OD (600 nm).
(§3) Mueller-Hinton broth (MHB, Sigma-Aldrich) was used as the working medium for all bacterial strains. Briefly, inoculum was prepared from freshly grown cultures of bacteria being at their exponential phase of growth. Each well of 96-well plates containing 100 μL of serially diluted peptides in PBS at desired concentration was inoculated with 100 μL of 1 × 10^5 (CFU) mL^−1 of bacterial suspensions. Then, plates were incubated overnight at 37 °C and absorbance was read at 590 nm in a Flex Station 3 multi-mode microplate reader (Molecular Devices). An absorbance reading in wells without a peptide representing unrestrained bacterial growth was taken as positive control (100% bacterial survival). Readings in wells without bacteria were taken as negative controls. All measurements were run in triplicates.

[10] = system: E. coli; format: cell-based, Escherichia coli ATCC 25922
Procedure: as §2, §3

V8 protease, sequence (P0C1U8 69-336): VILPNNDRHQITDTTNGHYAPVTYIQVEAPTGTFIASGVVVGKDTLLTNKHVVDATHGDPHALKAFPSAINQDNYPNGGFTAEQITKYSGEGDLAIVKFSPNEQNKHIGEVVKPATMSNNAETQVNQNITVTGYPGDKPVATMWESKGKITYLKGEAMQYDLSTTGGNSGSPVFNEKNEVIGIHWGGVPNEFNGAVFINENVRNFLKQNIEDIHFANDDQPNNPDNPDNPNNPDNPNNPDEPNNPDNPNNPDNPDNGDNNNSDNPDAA
aureolysin, sequence (P81177 209-509): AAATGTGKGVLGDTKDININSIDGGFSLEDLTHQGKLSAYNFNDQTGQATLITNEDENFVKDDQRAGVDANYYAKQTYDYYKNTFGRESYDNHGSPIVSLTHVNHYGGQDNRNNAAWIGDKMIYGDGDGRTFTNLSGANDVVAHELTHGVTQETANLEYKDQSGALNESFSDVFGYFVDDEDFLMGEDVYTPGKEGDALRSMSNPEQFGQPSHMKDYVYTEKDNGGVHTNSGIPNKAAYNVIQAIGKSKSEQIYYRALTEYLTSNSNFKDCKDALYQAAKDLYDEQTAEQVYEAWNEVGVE
cathepsin G, sequence (P08311 21-255): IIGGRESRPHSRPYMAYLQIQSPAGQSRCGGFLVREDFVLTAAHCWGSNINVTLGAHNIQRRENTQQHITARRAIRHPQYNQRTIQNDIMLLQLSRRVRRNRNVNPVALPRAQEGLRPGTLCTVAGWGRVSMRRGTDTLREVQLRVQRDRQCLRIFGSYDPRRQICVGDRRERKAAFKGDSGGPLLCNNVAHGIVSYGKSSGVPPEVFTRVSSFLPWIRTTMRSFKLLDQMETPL
recombinant human PAD4, sequence (Q9UM07 whole entry): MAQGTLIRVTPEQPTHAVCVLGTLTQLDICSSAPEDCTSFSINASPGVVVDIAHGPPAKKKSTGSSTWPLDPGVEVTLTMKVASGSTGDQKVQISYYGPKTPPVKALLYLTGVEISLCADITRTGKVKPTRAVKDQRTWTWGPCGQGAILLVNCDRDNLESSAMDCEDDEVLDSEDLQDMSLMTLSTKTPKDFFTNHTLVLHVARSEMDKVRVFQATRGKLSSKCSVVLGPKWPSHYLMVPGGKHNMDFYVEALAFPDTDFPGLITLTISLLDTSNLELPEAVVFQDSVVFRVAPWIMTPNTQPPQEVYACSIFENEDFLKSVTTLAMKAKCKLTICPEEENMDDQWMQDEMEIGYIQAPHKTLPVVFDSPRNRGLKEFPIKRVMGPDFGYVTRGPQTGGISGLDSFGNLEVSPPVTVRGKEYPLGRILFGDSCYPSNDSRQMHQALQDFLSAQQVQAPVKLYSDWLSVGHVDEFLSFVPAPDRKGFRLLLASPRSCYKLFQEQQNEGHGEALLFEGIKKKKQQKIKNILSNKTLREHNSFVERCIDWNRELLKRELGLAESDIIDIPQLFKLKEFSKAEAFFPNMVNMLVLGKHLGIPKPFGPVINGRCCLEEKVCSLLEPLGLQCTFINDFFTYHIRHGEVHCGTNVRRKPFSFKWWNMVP
neutrophil elastase, sequence (P08246 30-267): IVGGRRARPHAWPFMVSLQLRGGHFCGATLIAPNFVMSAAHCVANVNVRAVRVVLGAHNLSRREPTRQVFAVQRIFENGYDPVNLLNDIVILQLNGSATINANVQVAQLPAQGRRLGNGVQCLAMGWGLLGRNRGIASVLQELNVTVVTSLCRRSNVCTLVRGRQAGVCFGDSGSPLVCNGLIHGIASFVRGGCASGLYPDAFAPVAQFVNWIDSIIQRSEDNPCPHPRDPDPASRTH

SMILES	Degradation by cathepsin G ([1]; 5 μg peptide, 0.5 μg protease, PBS, 25 μL, 37 °C, 1 h and 18 h, SDS-PAGE, Coomassie)	Degradation by aureolysin [2]	Degradation by V8 protease [3]	Degradation in NETs [4]	Toxicity, LDH release ([5]; peptide 10 μg/mL)	Toxicity, LDH release ([5]; peptide 25 μg/mL)	Toxicity, LDH release ([5]; peptide 75 μg/mL)	Safety and tolerability [6]	Modification (citrullination) by PAD4 [7]	Degradation by neutrophil elastase [8]	Degradation by cathepsin G [1]	MIC (minimal inhibitory concentration) [9]	MIC (minimal inhibitory concentration) [10]
CC[C@H](C)[C@H](NC(=O)[C@H](CCCCN)NC(=O)[C@H](CCC(=O)O)NC(=O)[C@H](CCCCN)NC(=O)[C@H](CO)NC(=O)[C@H](CCCCN)NC(=O)[C@H](CCCNC(=N)N)NC(=O)[C@H](Cc1ccccc1)NC(=O)[C@H](Cc1ccccc1)NC(=O)[C@H](CC(=O)O)NC(=O)CNC(=O)[C@H](CC(C)C)NC(=O)[C@@H](N)CC(C)C)C(=O)NCC(=O)N[C@@H](CCCCN)C(=O)N[C@@H](CCC(=O)O)C(=O)N[C@@H](Cc1ccccc1)C(=O)N[C@@H](CCCCN)C(=O)N[C@@H](CCCNC(=N)N)C(=O)N[C@H](C(=O)N[C@H](C(=O)N[C@@H](CCC(N)=O)C(=O)N[C@@H](CCCNC(=N)N)C(=O)N[C@H](C(=O)N[C@@H](CCCCN)C(=O)N[C@@H](CC(=O)O)C(=O)N[C@@H](Cc1ccccc1)C(=O)N[C@@H](CC(C)C)C(=O)N[C@@H](CCCNC(=N)N)C(=O)N[C@@H](CC(N)=O)C(=O)N[C@@H](CC(C)C)C(=O)N[C@H](C(=O)N1CCC[C@H]1C(=O)N[C@@H](CCCNC(=N)N)C(=O)N[C@H](C(=O)N[C@@H](CCC(=O)O)C(=O)N[C@@H](CO)C(=O)O)[C@@H](C)O)C(C)C)[C@@H](C)CC)C(C)C)[C@@H](C)CC [LL-37]	did not differ	similarly sensitive	similarly sensitive	gradually degraded	did not compromise the membrane permeability	did not compromise the membrane permeability	low, but still significant, release of LDH	no safety or tolerability concerns were noted					
CC[C@H](C)[C@H](NC(=O)[C@H](CCCCN)NC(=O)[C@H](CCC(=O)O)NC(=O)[C@H](CCCCN)NC(=O)[C@H](CO)NC(=O)[C@H](CCCCN)NC(=O)[C@H](CCCCNC(=N)N)NC(=O)[C@H](Cc1ccccc1)NC(=O)[C@H](Cc1ccccc1)NC(=O)[C@H](CC(=O)O)NC(=O)CNC(=O)[C@H](CC(C)C)NC(=O)[C@@H](N)CC(C)C)C(=O)NCC(=O)N[C@@H](CCCCN)C(=O)N[C@@H](CCC(=O)O)C(=O)N[C@@H](Cc1ccccc1)C(=O)N[C@@H](CCCCN)C(=O)N[C@@H](CCCCNC(=N)N)C(=O)N[C@H](C(=O)N[C@H](C(=O)N[C@@H](CCC(N)=O)C(=O)N[C@@H](CCCCNC(=N)N)C(=O)N[C@H](C(=O)N[C@@H](CCCCN)C(=O)N[C@@H](CC(=O)O)C(=O)N[C@@H](Cc1ccccc1)C(=O)N[C@@H](CC(C)C)C(=O)N[C@@H](CCCCNC(=N)N)C(=O)N[C@@H](CC(N)=O)C(=O)N[C@@H](CC(C)C)C(=O)N[C@H](C(=O)N1CCC[C@H]1C(=O)N[C@@H](CCCCNC(=N)N)C(=O)N[C@H](C(=O)N[C@@H](CCC(=O)O)C(=O)N[C@@H](CO)C(=O)O)[C@@H](C)O)C(C)C)[C@@H](C)CC)C(C)C)[C@@H](C)CC [hArg-LL-37]		similarly sensitive	similarly sensitive						did not evidently modify	degraded more rapidly by neutrophil elastase than LL-37	did not differ	50 µg/mL (≈ 11 µM)	50 µg/mL (≈ 11 µM)
